What follows are compounds tested against T1, Angiotensin II-Rezeptor (Rattus norvegicus, UniProt P25095) (assay: Angiotensin II receptor binding ([125I]-angiotensin II displacement, rat lung homogenate)). Conditions: Rattenlunge homogenate, 50 pM [125I]-Angiotensin II, 60 min at 37 °C.
T1 construct: Das Gewebe (Rattenlunge) wird in Tris-Puffer; from tissue; host or cells: rat lung (membrane pellet of the homogenate)
T1 sequence (P25095 1-359): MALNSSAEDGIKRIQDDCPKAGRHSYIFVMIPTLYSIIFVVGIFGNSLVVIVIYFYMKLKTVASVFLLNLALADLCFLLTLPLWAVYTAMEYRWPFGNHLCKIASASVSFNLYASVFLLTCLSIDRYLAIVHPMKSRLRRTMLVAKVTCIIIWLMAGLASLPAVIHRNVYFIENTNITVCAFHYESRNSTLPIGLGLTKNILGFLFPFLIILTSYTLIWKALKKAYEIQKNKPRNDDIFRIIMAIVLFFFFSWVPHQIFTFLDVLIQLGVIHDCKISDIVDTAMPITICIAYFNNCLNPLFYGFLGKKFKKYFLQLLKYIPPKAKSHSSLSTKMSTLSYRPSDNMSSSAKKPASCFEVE
Set-up: species or system Ratte
Method: Methodenbeschreibung Angiotensin II-Rezeptorbindung
Das Gewebe (Rattenlunge) wird in Tris-Puffer (50 mMol Tris, 150 mMol NaCI, 5 mMol EDTA, pH 7.40) homogenisiert und zweimal je 20 Min. bei 20.000 x g zentrifugiert. Das endgültige Pellet wird in Inkubations-Puffer (50 mMol Tris, 5 mMol MgCI2, 0,2 % BSA, pH 7.40) 1:75, bezogen auf das Feuchtgewicht des Gewebes, resuspendiert. Je 0,1 ml Homogenat wird für 60 Min. bei 37 ° C mit 50 pM [125']-Angiotensin II (NEN, Dreieich, FRG) und steigenden Konzentrationen der Testsubstanz in einem Gesamtvolumen von 0,25 ml inkubiert. Die Inkubation wird durch rasche Filtration durch Glasfiber-Filtermatten beendet. Die Filter werden je 4 ml eiskaltem Puffer (25 mMol Tris, 2.5 mMol MgCI2, 0,1 % BSA, pH 7,40) gewaschen. Die gebundene Radioaktivität wird in einem Gamma-Counter ermittelt. Aus der Dosis-Wirkungskurve wird der entsprechende 1C50-Wert ermittelt.

In order of falling IC50:
1. CCCc1nc2c(C)cccc2n1Cc1ccc(-c2ccccc2)c(Cc2nnn[nH]2)c1 [Substanz A, 2-n-Propyl-4-methyl-1-[3-(tetrazol-5-yl-methyl)-4-phenyl-benzyl]-benzimidazol]  370 nM
2. CCCc1nc2c(C)cccc2n1Cc1ccc(-c2ccccc2)c(CCC(=O)O)c1 [Substanz B, 2-n-Propyl-4-methyl-1-[3-(2-hydroxycarbonyl-ethyl)-4-phenyl-benzyl]-benzimidazol]  270 nM
3. CCc1nc2c(C)cc(C)nc2n1Cc1ccc(-c2ccccc2)c(Cc2nnn[nH]2)c1 [Substanz D, 2-Ethyl-5,7-dimethyl-3-[3-(tetrazol-5-yl-methyl)-4-phenyl-benzyl]-imidazo[4,5-b]pyridin]  73 nM
4. CCCc1nc2c(C)cc(-c3nc4ccccc4n3C)cc2n1Cc1ccc(-c2ccccc2)c(CCC(=O)O)c1 [Substanz C, 2-n-Propyl-4-methyl-6-(1-methyl-benzimidazol-2-yl)-1-[3-(2-hydroxycarbonyl-ethyl)-4-phenyl-benzyl]-benzimidazol]  18 nM
5. CCCc1nc2c(C)cc(-c3cn(C(C)C)cn3)cc2n1Cc1ccc(-c2ccccc2)c(CCc2nnn[nH]2)c1 [Substanz E, 2-n-Propyl-4-methyl-6-(1-isopropyl-imidazol-4-yl)-1-[3-(2-tetrazol-5-yl-ethyl)-4-phenyl-benzyl]-benzimidazol]  6.9 nM
